Reference: PMC8874959 (Viruses, 2022)
In brackets after ≈: the same amount, converted by molar mass. Entries after “also recorded” stand apart in the source; their conditions may differ. Where two headings read alike, the source gives them in different places.

Assays:
in vitro [1] = format: cell-based; conditions: African green monkey
SARS-CoV-2 [2] = conditions: cited from earlier work
[3] = cited from earlier work; for Plasma protein binding: Table S3, ref DrugBank, PubChem, Warhurst, et al JAC 2003, Schroeder and Gerber Toxicol. Rep. 2014
[4] = ref DrugBank; PubChem; Warhurst, et al JAC 2003; Schroeder and Gerber Toxicol. Rep. 2014; cited from earlier work
in vitro [5] = format: cell-based; conditions: human
SARS-CoV-2 Gamma strain = assay: microbe, parasite or virus in culture; format: cell-based; conditions: Severe acute respiratory syndrome coronavirus 2; Calu-3, Gamma strain, MOI 0.1, 48 hpi
[6] = tested on: SARS-CoV-2-infected monocytes; format: cell-based, human
SARS-CoV-2 [7] = format: cell-based
SARS-CoV-2 [8] = conditions: Vero-E6, cited from earlier work
tuberculosis = conditions: cited from earlier work
[9] = cited from earlier work; for Cmax: human plasma
[10] = PBPK input, cited from earlier work
SARS-CoV-2 [11] = format: cell-based; remark: listed apart in the source

| Compound | Antiviral activity in SARS-CoV-2-infected Calu-3 cells (SARS-CoV-2 [2]) | Plasma protein binding [3] | LogP [4] | pKa1 [4] | pKa2 [4] | pKa3 [4] | CC50 (in vitro [5]) | CC50 (in vitro [1]) | EC50 (SARS-CoV-2 Gamma strain) | EC90 (SARS-CoV-2 Gamma strain) | other results |
| --- | --- | --- | --- | --- | --- | --- | --- | --- | --- | --- | --- |
| CCN(CC)CCCC(C)Nc1ccnc2cc(Cl)ccc12 (stereo not drawn) [Chloroquine] | inactive; also recorded: lacks antiviral activity | 46-74% |  |  |  |  |  |  |  |  | CC50 at 72 h (in vitro [1]; Vero E6, 72 h): 259 ± 5 µM |
| CCN(CCO)CCCC(C)Nc1ccnc2cc(Cl)ccc12 (stereo not drawn) [Hydroxychloroquine, hydroxychloroquine] | lacks antiviral activity | 50% | 4.12 | < 4.0 | 8.3 | 9.7 |  |  |  |  | Lipinski’s rule of five [4]: Yes; Physiological charge [4]: +2 |
| OC(c1cc(C(F)(F)F)nc2c(C(F)(F)F)cccc12)C1CCCCN1 (stereo not drawn) [Mefloquine] |  | > 98% | 3.90 | lower than 3.0 | 9.46 | 13.79 | 19.9 ± 0.06 µM | 9.2 ± 0.3 µM | 1.2 ± 0.4 µM | 2.7 ± 0.3 µM | Virus-induced IL-6 levels [6]: reduce the augmentation of these cytokines in a donor-dependent manner; Virus-induced TNF-α levels [6]: reduce the augmentation of these cytokines in a donor-dependent manner; Virus-induced monocyte death (LDH) [6]: reduce virus-induced monocyte death; Number of viral particles in the endosomes (SARS-CoV-2 [7]): reduced the number of viral particles in the endosomes; EC90 (SARS-CoV-2 [8]; ref 8 (supplement)): 3.0643 µg/mL (≈ 8.1 µM); EC90 (SARS-CoV-2 [8]; ref 9 (supplement)): 2.4552 µg/mL (≈ 6.49 µM); EC90 (SARS-CoV-2 [8]; ref 10 (supplement)): 2.5138 µg/mL (≈ 6.64 µM); Minimal inhibitory concentration (tuberculosis): 20 µM (≈ 7.57 µg/mL); Half-life [9]: measured in weeks; Cmax ([9]; equivalent): 8.67 µM; Cmax [9]: 3279 ng/mL; Protein binding ([3]; PBPK input, ref 12 (supplement)): 98%; Half-life ([10]; ref 11 (supplement)): 2-4 weeks; Intrinsic clearance ([10]; ref 12 (supplement)): 10.47 L/h; Log P ([10]; ref 12 (supplement)): 3.87; pKa (diprotic base) ([10]; ref 12 (supplement)): 8.7; Water solubility [4]: 38 µg/mL |
| CCC(CC)COC(=O)[C@H](C)N[P@](=O)(OC[C@H]1O[C@@](C#N)(c2ccc3c(N)ncnn23)[C@H](O)[C@@H]1O)Oc1ccccc1 [Remdesivir] |  |  |  |  |  |  | 480 ± 20 µM | 512 ± 30 µM | 0.01 ± 0.008 µM | 0.2 ± 0.02 µM | Improvement of remdesivir's efficiency (SARS-CoV-2 [11]): 200 fold |
